From article PMC5956543, “Antimicrobial and antioxidant activities of triterpenoid and phenolic derivatives from two Cameroonian Melastomataceae plants: Dissotis senegambiensis and Amphiblemma monticola” (BMC Complementary and Alternative Medicine, 2018)
In brackets after ≈: the same amount, converted by molar mass.

Experiments:
S. aureus MRSA4 = test: Broth microdilution antimicrobial assay (MIC/MMC); assay type: cell-based, Staphylococcus aureus; settings: S. aureus MRSA4; for MBC / MIC: Staphylococcus aureus, 24 h; for MBC: no growth after sub-culturing; for MIC: 37 °C
Description: (§1) The microorganisms used in this study include four bacterial (Staphylococcus aureus ATCC25923, methicillin sensitive S. aureus MSSA1, methicillin resistant S. aureus MRSA3 and methicillin resistant S. aureus MRSA4) and three yeast strains (Candida albicans ATCC10231, Candida tropicalis PK233 and Cryptococcus neoformans H99). These microorganisms were taken from our laboratory collection. The fungal and bacterial strains were grown at 37 °C and maintained on Sabouraud Dextrose Agar (SDA, Conda, Madrid, Spain) and nutrient agar (NA, Conda) slants respectively.
(§2) The inocula of bacteria and yeasts were prepared from overnight cultures as previously described. Absorbance was read spectrophotometrically at 530 nm and 600 nm for yeasts and bacteria respectively. The final concentrations of microbial suspensions were 2.5 × 10^5 cells/mL for yeasts and 10^6 CFU/mL for bacteria.
(§3) The antimicrobial activity was evaluated by determining the minimum inhibitory concentrations (MICs). MICs of extracts and compounds were determined by broth micro dilution. Each test sample was dissolved in 10% v/v aqueous dimethylsulfoxide (DMSO) to give a stock solution. This was serially diluted two-fold in Mueller-Hinton Broth (MHB) for bacteria and Sabouraud Dextrose Broth (SDB) for fungi to obtain a concentration range of 4096 to 0.25 μg/mL. Then, 100 μL of each sample concentration was added to respective wells (96-well micro plate) containing 90 μL of SDB/ MHB and 10 μL of inoculum to give final concentration ranges of 2048 to 4 μg/mL (for extracts) and 256 to 0.125 μg/mL (for compounds). Dilutions of nystatin (Sigma-Aldrich, Steinheim, Germany) and ciprofloxacin (Sigma-Aldrich, Steinheim, Germany) were used as positive controls for yeasts and bacteria respectively. Broth with 10 μL of DMSO was used as negative control. The cultured micro plates were covered; then, the contents of each well were mixed thoroughly using a plate shaker (Flow Laboratory, Germany) and incubated at 37 °C for 24 h (bacteria) and 48 h (yeasts) under shaking. After the incubation period, MICs were assessed visually and were taken as the lowest sample concentration at which there was no growth or virtually no growth. The lowest concentration that yielded no growth after the sub-culturing was considered as the minimum microbicidal concentrations (MMCs). All the tests were performed in triplicate.

S. aureus MRSA3 = test: Broth microdilution antimicrobial assay (MIC/MMC); assay type: cell-based, Staphylococcus aureus; settings: S. aureus MRSA3; for MBC / MIC: Staphylococcus aureus, 24 h; for MBC: no growth after sub-culturing; for MIC: 37 °C
Description: as §1, §2, §3

S. aureus ATCC25923 = test: Broth microdilution antimicrobial assay (MIC/MMC); assay type: cell-based, Staphylococcus aureus; settings: for MIC / MBC: Staphylococcus aureus, 24 h; for MIC: 37 °C; for MBC: no growth after sub-culturing
Description: as §1, §2, §3

S. aureus MSSA1 = test: Broth microdilution antimicrobial assay (MIC/MMC); assay type: cell-based, Staphylococcus aureus; settings: for MIC / MBC: Staphylococcus aureus, 24 h; for MIC: 37 °C; for MBC: no growth after sub-culturing
Description: as §1, §2, §3

C. neoformans H99 = test: Broth microdilution antimicrobial assay (MIC/MMC); assay type: cell-based, Cryptococcus neoformans; settings: Cryptococcus neoformans, 48 h; for MIC: 37 °C, read-out: MIC; for MFC: no growth after sub-culturing
Description: as §1, §2, §3

C. tropicalis PK233 = test: Broth microdilution antimicrobial assay (MIC/MMC); assay type: cell-based, Candida tropicalis; settings: Candida tropicalis, 48 h; for MIC: 37 °C, read-out: MIC; for MFC: no growth after sub-culturing
Description: as §1, §2, §3

[1] = system: bacterial and fungal strains; test: Broth microdilution MIC, range over all tested strains; assay type: cell-based
Description: as §1, §2, §3

C. albicans ATCC10231 = test: Broth microdilution antimicrobial assay (MIC/MMC); assay type: cell-based, Candida albicans; settings: for MIC: Candida albicans, 37 °C, 48 h, read-out: MIC; for MMC: no growth after sub-culturing
Description: as §1, §2, §3

[2] = DPPH free radical scavenging assay; settings: Fig. 3; vitamin C standard
Description: The free radical scavenging activity of extracts and compounds was evaluated according to described methods. The EC50 (μg/ml), which is the amount of sample necessary to inhibit by 50% the absorbance of free radical DPPH was calculated. Vitamin C was used as a standard control. All the analyses were carried out in triplicate.

[3] = Ferric reducing antioxidant power (FRAP) assay; settings: Perl's Prussian blue at 700 nm; Fig. 2; BHT positive control
Description: The FRAP was determined by the Fe^3+-Fe^2+ transformation in the presence of extracts and compounds as previously described. The Fe^2+ was monitored by measuring the formation of Perl’s Prussian blue at 700 nm. Butylated hydroxytoluene (BHT) was used as a positive control. All the tests were performed in triplicate.

MIC (S. aureus MRSA4)	MIC (S. aureus MRSA3)	MIC (S. aureus ATCC25923)	MIC (S. aureus MSSA1)	MIC (C. neoformans H99)	MIC (C. tropicalis PK233)	MIC (C. albicans ATCC10231)	Compound	MBC (S. aureus MRSA4)	MBC (S. aureus MRSA3)	MBC (S. aureus ATCC25923)	MBC (S. aureus MSSA1)	MFC (C. neoformans H99)	MFC (C. tropicalis PK233)	MMC (C. albicans ATCC10231)	DPPH radical-scavenging activity (in words) [2]	reducing power (FRAP, in words) [3]	other results
128 µg/mL (≈ 280 µM)	128 µg/mL (≈ 280 µM)	256 µg/mL (≈ 561 µM)	128 µg/mL (≈ 280 µM)	128 µg/mL (≈ 280 µM)	256 µg/mL (≈ 561 µM)	256 µg/mL (≈ 561 µM)	C[C@H]1[C@H](C)CC[C@]2(C(=O)O)CC[C@]3(C)C(=CC[C@@H]4[C@@]5(C)CC[C@H](O)C(C)(C)[C@@H]5CC[C@]43C)[C@H]12 [Compound 3, ursolic acid]	> 256 µg/mL	> 256 µg/mL	> 256 µg/mL	> 256 µg/mL	> 256 µg/mL	> 256 µg/mL	> 256 µg/mL	–	–	antimicrobial activity (in words) ([1]; all the tested bacterial and fungal species): active against all the tested bacterial and fungal species; MIC ([1]; range over all bacterial and fungal strains, read-out: MIC): 128 to 256 µg/mL (≈ 280 to 561 µM)
> 256 µg/mL	> 256 µg/mL	> 256 µg/mL	> 256 µg/mL	128 µg/mL (≈ 222 µM)	256 µg/mL (≈ 444 µM)	256 µg/mL (≈ 444 µM)	CC[C@H](CC[C@@H](C)[C@H]1CCC2C3CC=C4C[C@@H](O[C@@H]5O[C@H](CO)[C@@H](O)[C@H](O)[C@H]5O)CC[C@]4(C)C3CC[C@@]21C)C(C)C (stereo partly drawn) [Compound 4, sitosterol-3-O-β-D-glucopyranoside]	> 256 µg/mL	> 256 µg/mL	> 256 µg/mL	> 256 µg/mL	> 256 µg/mL	> 256 µg/mL	> 256 µg/mL	not active	not active	–
> 256 µg/mL	> 256 µg/mL	256 µg/mL (≈ 600 µM)	256 µg/mL (≈ 600 µM)	256 µg/mL (≈ 600 µM)	256 µg/mL (≈ 600 µM)	> 256 µg/mL	C=C(C)[C@@H]1CC[C@]2(C)CC[C@]3(C)[C@H](CC[C@@H]4[C@@]5(C)CC[C@H](O)C(C)(C)[C@@H]5CC[C@]43C)[C@@H]12 [Compound 9, lupeol]	> 256 µg/mL	> 256 µg/mL	> 256 µg/mL	> 256 µg/mL	> 256 µg/mL	> 256 µg/mL	–	not active	not active	–

Continued, compound first:

Compound	MIC (S. aureus MRSA4)	MIC (S. aureus MRSA3)	MIC (S. aureus ATCC25923)	MIC (S. aureus MSSA1)	MIC (C. neoformans H99)	MIC (C. tropicalis PK233)	MIC (C. albicans ATCC10231)	MBC (S. aureus MRSA4)	MBC (S. aureus MRSA3)	MBC (S. aureus ATCC25923)	MBC (S. aureus MSSA1)	MFC (C. neoformans H99)	MFC (C. tropicalis PK233)	MMC (C. albicans ATCC10231)	DPPH radical-scavenging activity (in words) [2]	reducing power (FRAP, in words) [3]	other results
O=C(O)c1cn(C2CC2)c2cc(N3CCNCC3)c(F)cc2c1=O [Ciprofloxacin, reference compound]	32 µg/mL (≈ 96.6 µM)	16 µg/mL (≈ 48.3 µM)	1 µg/mL (≈ 3.02 µM)	1 µg/mL (≈ 3.02 µM)	–	–	–	32 µg/mL (≈ 96.6 µM)	16 µg/mL (≈ 48.3 µM)	1 µg/mL (≈ 3.02 µM)	1 µg/mL (≈ 3.02 µM)	–	–	–	–	–	MMC/MIC (S. aureus MRSA4): 1; MMC/MIC (S. aureus MRSA3): 1; MMC/MIC (S. aureus ATCC25923): 1; MMC/MIC (S. aureus MSSA1): 1
CC1(C)CC[C@]2(C(=O)O)CC[C@]3(C)C(=CC[C@@H]4[C@@]5(C)CC[C@H](O)C(C)(C)[C@@H]5CC[C@]43C)[C@@H]2C1 [Compound 13, oleanolic acid]	–	–	–	–	–	–	–	–	–	–	–	–	–	–	not active	not active	–
